Laboratory results: US20150045610A1, “METHOD OF MODIFYING SPERMATOGENESIS, SPERMIOGENESIS AND/OR FERTILITY IN MAMMALS” (Monell Chemical Senses Center, priority 2012, published 2015)

Target: T1, humanized mhT1R3 (Homo sapiens, UniProt Q7RTX0, A109T/A120V/A176D/A197V/A198V/A228S/A231N/A248T/A280V/A282S/A302S/A412V/A417V/A46T/A537T/C375D/D124S/D249S/D250G/D364H/D419E/D470T/D491G/D88A/DEL352-352/DEL488-489/E172D/E199T/E203N/E217D/E356N/E45S/E481Q/E505D/E525K/E545Q/F540P/F555L/G168S/G205S/G311T/G314N/G355L/G360D/G414H/G438R/G439D/G463S/G50T/G542N/H261R/H278R/H281Y/H332P/I485M/I536F/INS376MLQNLSSG/K32Q/K339E/K422L/K494V/K86G/L173R/L245Q/L272V/L29F/L354S/L385Q/L433M/L458M/L483S/L71F/L74M/M151L/M315I/M318V/M31A/N285S/N386L/N532H/N68L/P112S/P246H/P335S/P416H/P420H/P441T/P60I/Q221E/Q257L/Q317R/Q330L/Q336H/Q359L/Q372R/Q418S/Q504K/Q531K/R123Q/R247D/R252Q/R291G/R30K/R357A/R443Q/R467V/R473T/R479Q/R482Q/R486Y/R498Q/R52N/R550K/R553A/R556P/R560K/R56Q/S251Q/S267K/S289H/S290H/S392A/S446A/S447E/S464P/S477T/S490P/S53Q/S559P/S58N/S67P/T195Q/T346A/T377L/T390I/T434S/T480L/T63N/V152I/V277A/V366M/V36I/V381L/V393T/V437A/V465T/V61P/W72L)
T1 construct: the extracellular domain is of mouse origin and the transmembrane and intracellular domains of human origin; mouse T1R3 extracellular domain (fusion partner replacing the human extracellular domain); expressed in transfected cells; host or cells: transgenic Line 7c mice (T1R3-/-, Gus-/-, mhT1R3+/-)
T1 sequence (Q7RTX0 with tags, fused parts or gaps L29F/R30K/M31A/K32Q/V36I/E45S/A46T/G50T/R52N/S53Q/R56Q/S58N/P60I/V61P/T63N/S67P/N68L/L71F/W72L/L74M/K86G/D88A/A109T/P112S/A120V/R123Q/D124S/M151L/V152I/G168S/E172D/L173R/A176D/T195Q/A197V/A198V/E199T/E203N/G205S/E217D/Q221E/A228S/A231N/L245Q/P246H/R247D/A248T/D249S/D250G/S251Q/R252Q/Q257L/H261R/S267K/L272V/V277A/H278R/A280V/H281Y/A282S/N285S/S289H/S290H/R291G/A302S/G311T/G314N/M315I/Q317R/M318V/Q330L/H332P/P335S/Q336H/K339E/T346A/DEL352-352/L354S/G355L/E356N/R357A/Q359L/G360D/D364H/V366M/Q372R/C375D/INS376MLQNLSSG/T377L/V381L/L385Q/N386L/T390I/S392A/V393T/A412V/G414H/P416H/A417V/Q418S/D419E/P420H/K422L/L433M/T434S/V437A/G438R/G439D/P441T/R443Q/S446A/S447E/L458M/G463S/S464P/V465T/R467V/D470T/R473T/S477T/R479Q/T480L/E481Q/R482Q/L483S/I485M/R486Y/DEL488-489/S490P/D491G/K494V/R498Q/Q504K/E505D/E525K/Q531K/N532H/I536F/A537T/F540P/G542N/E545Q/R550K/R553A/F555L/R556P/S559P/R560K limits assumed): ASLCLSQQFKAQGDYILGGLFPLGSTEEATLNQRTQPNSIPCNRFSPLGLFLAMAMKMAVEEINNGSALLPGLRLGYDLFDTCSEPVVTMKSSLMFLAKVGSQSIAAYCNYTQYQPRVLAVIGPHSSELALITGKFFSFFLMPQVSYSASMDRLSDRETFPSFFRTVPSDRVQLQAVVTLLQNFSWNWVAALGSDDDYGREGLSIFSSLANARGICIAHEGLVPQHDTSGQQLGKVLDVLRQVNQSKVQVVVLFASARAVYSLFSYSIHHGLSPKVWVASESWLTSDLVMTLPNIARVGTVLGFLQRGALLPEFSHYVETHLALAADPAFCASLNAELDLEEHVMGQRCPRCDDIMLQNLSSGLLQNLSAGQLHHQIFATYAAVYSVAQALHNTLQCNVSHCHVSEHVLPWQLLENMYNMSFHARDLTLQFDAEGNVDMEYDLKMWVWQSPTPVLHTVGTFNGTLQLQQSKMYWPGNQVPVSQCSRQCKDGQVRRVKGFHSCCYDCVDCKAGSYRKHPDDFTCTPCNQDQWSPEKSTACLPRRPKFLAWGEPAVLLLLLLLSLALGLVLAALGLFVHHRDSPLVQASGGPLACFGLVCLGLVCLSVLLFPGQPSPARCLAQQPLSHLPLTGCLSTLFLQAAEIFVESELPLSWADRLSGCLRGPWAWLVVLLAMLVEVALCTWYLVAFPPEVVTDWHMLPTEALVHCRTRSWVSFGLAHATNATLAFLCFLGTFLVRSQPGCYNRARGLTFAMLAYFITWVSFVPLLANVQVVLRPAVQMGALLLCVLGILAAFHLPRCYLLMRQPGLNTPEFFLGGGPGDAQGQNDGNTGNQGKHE
Experiment: T1R3 pharmacological block with clofibrate diet (male reproduction)
Assay type: in vivo, mouse
Settings: line 7c males on clofibrate diet, mated with WT females
Method: Matched groups (six males each) of WT and line 7c mice (expressing the chimerical mhT1R3 transgene on a T1R3/α-gustducin double-null background), 3-6 months old, were fed the indicated diets for 4-6 weeks. Each genotype was tested in two groups, one on the regular diet and one on a test diet with clofibrate. An additional group of males stayed on the test diet for another 4-6 weeks, during which time they were mated with WT females to determine whether the pharmacological intervention was effective. Then the animals were allowed to recover on the regular diet for an additional 4 weeks after the end of the treatment (half-time for total sperm turnover in mice), and again were tested for their reproductive capacity, and then their tissues were analyzed. […]
We observed spermatozoa after clofibrate treatment represent cells that were able to escape the inhibition of clofibric acid, most likely due to very fast clearance and fluctuating levels in rodents. […] Therefore, we measured sperm concentration as an indicator of efficiency of the pharmacological block and to be able to determine the concentration that results in effective sterility. We analyzed testicular morphology, sperm production, sperm motility and sperm function in in vitro fertilization after feeding these animals with the lipid lowering drug clofibrate. […]

CC(C)(Oc1ccc(Cl)cc1)C(=O)O [clofibric acid]
male fertility: significantly affected male fertility
